Key:
[1] = tested on: transgene-specific CD8^+ and CD4^+ T-cell responses; test: IM rAAV gene transfer: transgene-specific T-cell responses by IFN-γ ELISPOT; assay type: in vivo, C57BL/6 mice; details: vs PBS
Protocol: MnTBAP (Calbiochem, San Diego, USA or Enzo Life Sciences, Farmingdale, USA) is dissolved in 75 mM NaOH to constitute a 20 mM stock solution. MnTBAP is dissolved in the complete medium, used for in vitro treatment, containing RPMI-1640 supplemented with 10% heat-inactivated fetal calf serum, 100 U/ml penicillin/streptomycin, 2 mM glutamax and 50 µM β-mercaptoethanol β-ME). Hypertonic medium, used to block clathrin dependent endocytosis, is complete medium supplemented with 0.45 M sucrose. For in vivo treatment, the stock solution is diluted with PBS and administered at 80 mg/kg intraperitoneally daily during five days. Control animals are injected with equivalent volume of PBS.
Intramuscular (IM) injection: Two hours post first intraperitoneal (IP) injection of MnTBAP, mice are anesthetized by IP injection of xylazine (10 mg/kg) and ketamine (100 mg/kg) and 25 µl of a rAAV2/1 CMV SGCA HY viral preparation containing 2.5.10^9 vg is injected in the left tibialis anterior muscle (TA). Controls are injected with PBS. […] Spleens are harvested to analyze transgene-specific T cell response.
Spleens are harvested to analyze the cellular immune anti-transgene response by T-cell cytokine response assay. Multiscreen-HA Assay System 96-well Filtration plates (Merck) are coated overnight with 2.5 µg/ml of anti-mouse IFN-γ purified mAb (eBiosciences) at 4°C, washed, and then blocked with RPMI 1640 medium (Life Technologies, Saint-Aubin, France) supplemented with 10% heat inactivated fetal bovine serum (FCS), 100U/ml penicillin/streptomycin (Thermo Fisher Scientific) and 2mM GlutaMAXTM-I (Life technologies) for 2 hours at 37°C. Plates are washed three times with RPMI 1640 medium without FCS. […] Spots are counted using an AID reader (Ceipheid Benelux, Louven, Belgium). Spot forming units (SFU) per million cells for each mouse are calculated as the average value of duplicate measures after subtraction of background values obtained with in vitro unstimulated splenocytes.

CD4 = test: Time-lapse microscopy of CD4 cell surface fluorescence; assay type: cell-based, murine; details: time lapse for 4 hours, 400 µM, vs control
Protocol: Murine splenic CD4^+ T cells are first stained with CFSE, according to the manufacturer's recommendations (Invitrogen), and then with rat anti-mouse CD4-APC (RM4-5, BD Biosciences) mAb. After staining, cells are incubated in Ibidi's µ-chambers culture dish (Ibidi, Nanterre, France) in the thermo-regulated chamber of the Zeiss Axiovert 100 M confocal microscope. A time lapse acquisition is performed with a delay of 120 sec between frames. Each frame is illuminated using a 488 nm and 633 nm lasers, and fluorescence collected using 505-580 nm and 644-719 nm filters. The magnification is 40x/1.3 oil and images are saved as 8bits. The image stack is splitted using ImageJ-1.43, and images analyzed using CellProfiler 2.0.10415. The cell segmentation is performed on the CFSE fluorescence, and the fluorescence of the CD4 staining analyzed using the R software. Intensity is normalized to the maximum fluorescence measured at T0 for each condition.

[2] = tested on: lentiviral vectors pseudotyped with HIV-1 envelope protein (HXB2-env); test: Transduction of human CD3+ T cells by HXB2-env pseudotyped lentiviral vectors (GFP); assay type: cell-based; details: 400 µM, 72 hours post transduction, vs control
Protocol: CD3^+ T cells, from peripheral blood of healthy individual donors, are purified by positive selection via MACS beads using a magnetic cell sorting system (Miltenyi Biotec). CD3^+ T cells are activated for 3 days at 37°C, 5% CO2 in plates coated with anti-CD3 (10 µg/ml) and anti-CD28 (10 µg/ml) antibodies (both from Miltenyi Biotec) and filled with RPMI 1640 medium supplemented with 10% heat-inactivated fetal calf serum, 100 U/ml penicillin/streptomycin, 2 mM glutamax, 100 IU/ml IL-2 (Miltenyi Biotec). Cells are then transferred on retronectin (20 µg/cm2) coated-plates, in the presence or absence of MnTBAP (400 µM), at a density of 2.5 x 10^5 cells/ml for transduction during 6 h with 6 x 10^7 physical particles (pp)/ml of HXB2-env pseudotyped lentiviral vectors expressing GFP reporter gene under the control of hPGK (human phosphoglycerate kinase 1). After transduction, cells are washed and further incubated for 72 h in fresh culture medium (RPMI 1640 medium supplemented as described above). Cells are then harvested for transduction efficiency analysis by FACS, determined as the percentage of viable (7AAD-) lymphoid cells expressing GFP^+. The data are normalized to be a percentage of the control value (none) from each experiment.

[3] = eight days post vector injection

In the case of `O=C(O)c1ccc(-c2c3nc(c(-c4ccc(C(=O)O)cc4)c4ccc([n-]4)c(-c4ccc(C(=O)O)cc4)c4nc(c(-c5ccc(C(=O)O)cc5)c5ccc2[n-]5)C=C4)C=C3)cc1.[Mn+3]` [MnTBAP, manganese [III] tetrakis (4-benzoic acid) porphyrin], the “IFN-γ response of transgene specific CD4^+ T cells” value [1, 3] is reported as “significantly decreased”, the “IFN-γ response of transgene specific CD8^+ T cells” value [1, 3] is reported as “no significant differences” and the “IFN-γ response of transgene specific CD8^+ T cells” value ([1]; fifteen days post vector injection) is reported as “significantly decreased”. The “CD4 cell surface fluorescence over time” value (CD4) was “CD4 declines on CD4^+ T cells” and the “transduction efficiency of human T cells (GFP^+ cells)” value [2] was “significantly decreased”.
